{
  "source": "patent US4374828A",
  "about": "“Biologically active thymones from the thymus” (Board of Reagents, The University of Texas System, priority 1980, dated 1983)",
  "origin": "cited, not measured here",
  "key": {"[1]": {"system": "murine prothymocytes", "details": "in vitro"}, "[2]": {"system": "cells which had a B-lineage", "details": "in vitro"}, "[3]": {"system": "marrow cells"}, "[4]": {"system": "spleen cells of old mice"}},
  "data": [
    {"substance": "(H) Arg^32 -Lys^33 -Asp^34 -Val^35 -Tyr^36 -OH [pentapeptide]", "values": [
      {"measurement": "Differentiation of prothymocytes to thymocytes (in words)", "setting": "[1]", "value": "induced, in vitro, differentiation of murine prothymocytes to thymocytes"},
      {"measurement": "Differential induction of B-lineage cells (in words)", "setting": "[2]", "value": "inhibited, in vitro, the differential induction of cells which had a B-lineage"}
    ]},
    {"substance": "NH2 -Ser-Glu-Phe-Leu-Glu^5 -Asp-Pro-Ser-Val-Leu^10 -Thr-Lys-Glu-Lys-Leu^15 -Lys-Ser-Glu-Leu-Val^20 -Ala-Asn-Val-Thr^25 -Leu-Pro-Ala-Gly-Glu^30 -Gln-Arg-Lys-Asp-Val^35 -Tyr-Val-Gln-Leu-Tyr^40 -Leu-Gln-Thr-Leu-Thr^45 -Ala-Val-Lys-Arg^49 -COOH (H-SEFLEDPSVLTKEKLKSELVANVTLPAGEQRKDVYVQLYLQTLTAVKR-OH) [thymin II, polypeptide of bovine thymin, renamed thymopoietin II]", "values": [
      {"measurement": "Induction of marrow cells (in words)", "setting": "[3]", "value": "induce marrow cells to develop as intrathymic lymphocytes"}
    ]},
    {"substance": "thymopoietin: a preparation of thymopoietin", "values": [
      {"measurement": "Immune function of spleen cells (in words)", "setting": "[4]", "value": "increased the immune function of the spleen cells of old mice"}
    ]}
  ]
}
